Measured values reported in publication PMC2990756, “Quantitative High-Throughput Screening Identifies 8-Hydroxyquinolines as Cell-Active Histone Demethylase Inhibitors” (PLoS ONE, 2010).
pIC50: −log10 of the molar value. Like-named read-outs stand apart in the source and are kept apart here.

Key:
Type in all cases: biochemical
[1] = target: T1, JMJD2E (Homo sapiens, UniProt B2RXH2); assay: JMJD2E FDH-coupled assay under low and high iron conditions (iron chelation profile); design: The catalytic domain of human JMJD2E (residues 1–337); His6 (N); made in house; host or cells: E. coli; conditions: Table S1; for pIC50: unit not in table, from Figure 2
T1 sequence (B2RXH2 1-337): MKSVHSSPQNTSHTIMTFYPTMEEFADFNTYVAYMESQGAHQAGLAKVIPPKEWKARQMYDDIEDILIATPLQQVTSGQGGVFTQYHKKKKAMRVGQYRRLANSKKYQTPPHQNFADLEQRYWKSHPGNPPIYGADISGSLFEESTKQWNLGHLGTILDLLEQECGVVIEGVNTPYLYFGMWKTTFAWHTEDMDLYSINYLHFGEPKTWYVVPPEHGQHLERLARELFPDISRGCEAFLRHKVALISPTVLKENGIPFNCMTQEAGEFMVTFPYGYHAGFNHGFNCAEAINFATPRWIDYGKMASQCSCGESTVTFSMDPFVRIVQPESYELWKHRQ
Experimental: The prioritized compounds were also evaluated in the screening assay using two different ferrous ion concentrations (termed high iron and low iron, respectively), in order to assess their propensity for iron chelation.
The ratio of IC50 values under high iron to low iron was calculated for each compound.

[2] = target: T2, formaldehyde dehydrogenase (FDH) (Pseudomonas putida, UniProt P46154); assay: FDH coupling enzyme counterscreen; conditions: Table S1, FDH counterscreen; for pIC50: unit not in table, from Figure 2, read-out: qHTS Data: jmjd2e fdh IC50
T2 construct: purchased Sigma-Aldrich
Text: Dimethylsulfoxide certified ACS grade (DMSO) was from Fisher, Inc. HEPES buffer was obtained from Gibco. […] Black solid-bottom 1,536-well assay plates were from Greiner Bio-One (Monroe, NC).

[3] = target: T3, JMJD2E (KDM4E) (Homo sapiens, UniProt B2RXH2); assay: qHTS fluorescence FDH-coupled JMJD2E demethylase assay; conditions: Table S1; unit not in table, from Figure 2; read-out: qHTS Data: jmjd2e IC50
T3 construct: The catalytic domain of human JMJD2E (residues 1–337); His6 (N); made in house; host or cells: E. coli
T3 sequence (B2RXH2 1-337): T1 sequence (B2RXH2 1-337)
Text: The oxidation of formaldehyde is coupled to the reduction of NAD^+ to NADH, which is monitored by fluorescence spectroscopy. […] To this end, initial screening hits were filtered by a combination of cheminformatics (to exclude low-confidence inhibitors and autofluorescent false positives), counterscreening against the coupled-assay component formaldehyde dehydrogenase (FDH), and orthogonal direct detection of inhibition of demethylation by mass spectrometry ( Figure 1 ).
Reactions were initiated with 1 µL addition of peptide substrate solution containing final concentrations of 10 µM FAS, 50 µM 2OG, 0.25 U/mL FDH, 0.25 mM NAD^+, and 50 µM peptide substrate (ARK(me3)STGGK). A ViewLux imager (PerkinElmer, Waltham, MA) was used to measure NADH fluorescence (λex 340 nm, λem 450 nm) immediately after substrate addition and following 30 min incubation at room temperature. To record any systematic drifts in assay behavior (signal window and noise), assay plates containing no library compounds but only DMSO as a vehicle control were tested periodically (every ∼60 plates) throughout the screen.
Data were normalized to the basal response (0% activity) in the absence of enzyme and the maximal response (100% activity) in the absence of compound. Using the Hill equation, dose-response curves and IC50 values were automatically generated for each compound tested with software developed internally (www.ncgc.nih.gov/pub/openhts/curvefit/). […] The initial well fluorescence (first kinetic read) associated with each sample was stored in a database and used in the cheminformatics analysis to identify autofluorescent compounds interfering with the assay signal.

[4] = high iron, head says 20 µM FAS, read-out: qHTS Data: jmjd2e fas20um IC50
[5] = low iron 2.5 µM FAS, read-out: qHTS Data: jmjd2e fas2.5um IC50

T2 sequence (P46154 whole entry): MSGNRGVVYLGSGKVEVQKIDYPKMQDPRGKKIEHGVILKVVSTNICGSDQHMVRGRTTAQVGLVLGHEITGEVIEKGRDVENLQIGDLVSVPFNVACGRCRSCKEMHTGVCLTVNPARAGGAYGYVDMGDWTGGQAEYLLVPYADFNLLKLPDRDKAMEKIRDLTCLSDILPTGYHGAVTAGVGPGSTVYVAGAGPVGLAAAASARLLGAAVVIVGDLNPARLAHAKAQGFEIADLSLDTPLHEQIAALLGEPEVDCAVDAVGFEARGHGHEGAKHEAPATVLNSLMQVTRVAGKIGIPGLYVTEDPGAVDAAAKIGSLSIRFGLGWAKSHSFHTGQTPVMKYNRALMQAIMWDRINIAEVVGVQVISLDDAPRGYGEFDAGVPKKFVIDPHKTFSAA

For `Cl.NCCc1ccc(O)c(O)c1` [compound 50106387], the pIC50 [1, 4] was 5.40, the pIC50 [1, 5] was 4.95 and the “qHTS Data: jmjd2e fdh CurveClass” value [2] was “Inactive”. The pIC50 [3] was 4.90.

In the case of `Cl.NC(CO)C(=O)NNCc1ccc(O)c(O)c1O` (stereo not drawn) [compound 855739], the pIC50 [1, 4] was 5.40, the pIC50 [1, 5] was 5.75 and the “qHTS Data: jmjd2e fdh CurveClass” value [2] was “Inactive”. For the same molecule, the pIC50 [3] was 5.65.

With `CN[C@@H](C)[C@H](O)c1ccccc1.CN[C@@H](C)[C@H](O)c1ccccc1.O=S(=O)(O)O` [compound 50106282] the “qHTS Data: jmjd2e fas20um CurveClass” value ([1]; high iron) was 1.2, the pIC50 [1, 4] was 5.10 and the pIC50 [1, 5] was 5.65. The “qHTS Data: jmjd2e fdh CurveClass” value [2] was “Poor quality curve”, the pIC50 [2] was 4.90 and the pIC50 [3] was 5.45.

For `CN(C)S(=O)(=O)c1cccc(-n2sc3ccccc3c2=O)c1` [compound 24834029], the pIC50 [1, 4] was 5.90, the pIC50 [1, 5] was 5.35 and the “qHTS Data: jmjd2e fdh CurveClass” value [2] was “Poor quality curve”. The pIC50 [2] was 5.10 and the pIC50 [3] was 5.45.

With `NCC(O)c1ccc(O)c(O)c1.O=C(O)C(O)C(O)C(=O)O` (stereo not drawn) [compound 50105780] the pIC50 [1, 4] was 5.70, the pIC50 [1, 5] was 5.35 and the “qHTS Data: jmjd2e fdh CurveClass” value [2] was “Inactive”. For the same molecule, the pIC50 [3] was 4.90.

With `CNC[C@H](O)c1ccc(O)c(O)c1` [compound 26754418] the pIC50 [1, 4] was 4.90, the pIC50 [1, 5] was 5.30 and the “qHTS Data: jmjd2e fdh CurveClass” value [2] was “Inconclusive”. For the same molecule, the pIC50 [3] was 5.15.

With `Cc1cc(C(=O)NNC(=S)NC(=O)/C=C/c2ccccc2Cl)n[nH]1` [compound 14736067] the “qHTS Data: jmjd2e fas20um CurveClass” value ([1]; high iron) was “Inactive”, the pIC50 [1, 5] was 5.05 and the “qHTS Data: jmjd2e fdh CurveClass” value [2] was “Inactive”. For the same molecule, the pIC50 [3] was 5.10.

`Cc1ccc(N2C(=O)CC(Sc3ncn[nH]3)C2=O)cc1` (stereo not drawn) [compound 14726735] was tested, and the “qHTS Data: jmjd2e fas20um CurveClass” value ([1]; high iron) was “Poor quality curve”, the pIC50 [1, 4] was 4.50 and the pIC50 [1, 5] was 5.70. It also gave a pIC50 [2] of 6.49 and a pIC50 [3] of 5.60.

For `O=C(/C=C/c1ccccc1)NC(=S)NNC(=O)c1cnccn1` [compound 26725782], the pIC50 [1, 4] was 5.15, the pIC50 [1, 5] was 5.15 and the “qHTS Data: jmjd2e fdh CurveClass” value [2] was “Poor quality curve”. It also gave a pIC50 [2] of 4.45 and a pIC50 [3] of 5.05.

With `O=C1C=CC2=C3c4cc(O)c(O)cc4CC3(O)COC2=C1O` (stereo not drawn) [compound 26749676] the “qHTS Data: jmjd2e fas20um CurveClass” value ([1]; high iron) was “Poor quality curve”, the pIC50 [1, 4] was 4.75 and the pIC50 [1, 5] was 5.70. It also gave a pIC50 [2] of 4.95 and a pIC50 [3] of 5.20.

For `Oc1ccc(NCc2cccc(OCc3ccccc3)c2)cc1` [compound 24795995], the pIC50 [1, 4] was 4.45, the pIC50 [1, 5] was 4.85 and the “qHTS Data: jmjd2e fdh CurveClass” value [2] was “Inactive”. For the same molecule, the pIC50 [3] was 5.35.

With `O=C1c2ccc(O)c(O)c2C(=O)c2c(O)ccc(O)c21` [compound 26749241] the pIC50 [1, 4] was 4.80, the pIC50 [1, 5] was 5.60 and the “qHTS Data: jmjd2e fdh CurveClass” value [2] was “Inactive”. For the same molecule, the pIC50 [3] was 5.45.

`CC(C)c1ccc(N2C(=O)CC(Sc3ncn[nH]3)C2=O)cc1` (stereo not drawn) [compound 14726804] was tested, and the “qHTS Data: jmjd2e fas20um CurveClass” value ([1]; high iron) was “Poor quality curve”, the pIC50 [1, 4] was 4.70 and the pIC50 [1, 5] was 5.60. The pIC50 [2] was 6.60 and the pIC50 [3] was 5.80.

For `O=C(CCc1ccccc1)NCC(=O)N/N=C/c1ccc(O)cc1O` [compound 26660953], the pIC50 [1, 4] was 5.35, the pIC50 [1, 5] was 5.35 and the “qHTS Data: jmjd2e fdh CurveClass” value [2] was “Poor quality curve”. The pIC50 [2] was 4.75 and the pIC50 [3] was 5.20.

`COc1ccc(-c2cc(=O)n(CCC#N)[nH]2)cc1` [compound 17508964] was tested, and the pIC50 [1, 4] was 4.90, the “qHTS Data: jmjd2e fas2.5um Curve comment” value ([1]; low iron 2.5 µM FAS) was “Inactive” and the “qHTS Data: jmjd2e fdh CurveClass” value [2] was “Inactive”. It also gave a pIC50 [3] of 5.75.

With `Cc1ccnc(NC(c2cccnc2)c2ccc3cccnc3c2O)c1` (stereo not drawn) [compound 24794739] the pIC50 [1, 4] was 4.85, the pIC50 [1, 5] was 4.95 and the “qHTS Data: jmjd2e fdh CurveClass” value [2] was “Poor quality curve”. For the same molecule, the pIC50 [2] was 7.52 and the pIC50 [3] was 5.25.

With `CN1CC[C@]2(C)c3cc(O)ccc3N(C)[C@@H]12` [compound 11112885] the pIC50 [1, 4] was 5.15, the pIC50 [1, 5] was 5.05 and the “qHTS Data: jmjd2e fdh CurveClass” value [2] was “Inconclusive”. The pIC50 [3] was 5.65.

With `C[C@H](N)[C@H](O)c1ccc(O)c(O)c1` [compound 11112447] the pIC50 [1, 4] was 5.65, the pIC50 [1, 5] was 5.40 and the “qHTS Data: jmjd2e fdh CurveClass” value [2] was “Inactive”. It also gave a pIC50 [3] of 5.35.
